In US8591895B2, “Combinations for the treatment of diseases involving cell proliferation” (Boehringer Ingelheim International GmbH, priority 2004, dated 2013):
Read-outs that look alike come from different tables or passages of the source.

Tests used:
[1] = assay type: in vivo; conditions: day 39, Nr. 46 30 mg/kg i.v., irinotecan 12.5 mg/kg i.p., once weekly; for body weight gain: controls gained 10.3%
[2] = test system: HCT 116 tumors; assay: HCT 116 colon cancer model combination study: tumor growth of subcutaneous xenografts in nude mice; assay type: in vivo, human; conditions: Nr. 46 30 mg/kg i.v., irinotecan 12.5 mg/kg i.p.; for T/C (tumor growth delay): day 39 (end of the controls), once weekly (q7d)x10, alone or combined
[3] = test system: BxPC-3 tumours; assay: BxPC-3 pancreas model combination study: tumour growth of subcutaneous xenografts in nude mice; assay type: in vivo, human; conditions: day 26 (end of the controls); Nr. 46 50 mg/kg i.v., gemcitabine 100 mg/kg i.p., once weekly (q7d)x6, alone or combined
[4] = for body weight gain: day 26, Nr. 46 50 mg/kg i.v., gemcitabine 100 mg/kg i.p., once weekly, controls gained 6.2%
Method: Suboptimal doses of both compounds were used to facilitate the detection of additive, synergistic or antagonistic effects. Design of the Study • Model: Human adenocarcinoma model BxPC-3 grown as subcutaneous xenografts in nude mice. • Treatment groups (10 animals per group): • Controls Vehicle, i.v., once weekly for 4 weeks ((q7d)×4) • Exemplified compound Nr.
Tumor volumes and animal weights were recorded 3 times per week. Evaluation of therapy results was based on the absolute volumes of individual tumors.
Mice were female BomTac:NMRI-nu/nu. […] Gemcitabin infusion concentrate was diluted with 0.9% NaCl and injected intraperitoneally. The administration volume was 10 ml per kg body weight for both compounds. BxPC-3 tumours were established from cultured BxPC-3. Tumour volumes were determined three times a week using a calliper. The weight of mice was determined as an indicator of tolerability on the same days. Plasma samples were taken on the last treatment day.

[5] = test system: NCI-H460 tumors; assay: NCI-H460 lung model combination study: tumor growth of subcutaneous xenografts in nude mice; assay type: in vivo, human; conditions: Docetaxel 15 mg/kg i.v.; for T/C (tumor growth delay): day 17 (end of the controls), Nr. 46 50 mg/kg i.v., once weekly (q7d)x4, alone or combined; for delay of the average time to reach 1000 mm^3 in tumor volume compared to the controls: until day 71 (end of the study), weekly treatment until day 25, Nr. 46 50 mg/kg
From the text: (§1) The triangles indicate the treatment days.

[6] = Tolerability (body weight) in NCI-H460 tumor-bearing nude mice; conditions: 10 animals per group; Docetaxel 15 mg/kg i.v., alone or with Nr. 46 50 mg/kg i.v.
From the text: as §1

SMILES	tolerability [1]	body weight gain [1] [%]	T/C (tumor growth delay) [2] [%]	T/C (tumour growth delay) [3] [%]	body weight gain [4] [%]	tolerability of higher doses ([4]; mouse, in vivo)	delay of the average time to reach 1000 mm^3 in tumor volume ([2]; day 121 (end of the study), weekly treatment until day 64) [days]	T/C (tumor growth delay) [5] [%]	delay of the average time to reach 1000 mm^3 in tumor volume compared to the controls [5] [days]	mice euthanized due to severe loss of body weight [6]
CCc1c2c(nc3ccc(OC(=O)N4CCC(N5CCCCC5)CC4)cc13)-c1cc3c(c(=O)n1C2)COC(=O)[C@]3(O)CC [irinotecan]	well tolerated	5.9	25							
Nc1ccn([C@@H]2O[C@H](CO)[C@@H](O)C2(F)F)c(=O)n1 [gemcitabine, Gemcitabine]				65	8.8	not tolerated				
CC[C@@H]1C(=O)N(C)c2cnc(Nc3ccc(C(=O)NC4CCN(C)CC4)cc3OC)nc2N1C1CCCC1 [exemplified compound Nr. 46, 4-[[(7R)-8-cyclopentyl-7-ethyl-5,6,7,8-tetrahydro-5-methyl-6-oxo-2-pteridinyl]amino]-3-methoxy-N-(1-methyl-4-piperidinyl)-benzamide]		8.6	20	28	8.2		33.7	65	4.0	
CC(=O)O[C@@]12CO[C@@H]1C[C@H](O)[C@@]1(C)C(=O)[C@H](O)C3=C(C)[C@@H](OC(=O)[C@H](O)[C@@H](NC(=O)OC(C)(C)C)c4ccccc4)C[C@@](O)([C@@H](OC(=O)c4ccccc4)[C@H]21)C3(C)C [Docetaxel]								42	10.5	one mouse had to be euthanized
